Measurements taken from patent publication US20200338056A1, “INDUCTION OF SENESCENCE USING PROTON PUMP INHIBITORS” (THE METHODIST HOSPITAL SYSTEM, priority 2016, published 2020).

System: Human microvascular endothelial cells (ECs)
Assay: Senescence-associated β-galactosidase (SA-β-gal) staining with SYTO cell count
Type: cell-based
Description: Cell culture. Human microvascular endothelial cells (ECs) purchased from Lonza (cat # CC-2543, Basel, Switzerland) were cultured continuously for three passages from passage (P) 4 to P6 in the presence of clinically relevant doses of esomeprazole or vehicle (DMSO) (Shin J M, Kim N. Pharmacokinetics and pharmacodynamics of the proton pump inhibitors. Journal of neurogastroenterology and motility. 2013; 19:25-35). All in vitro experiments were performed at P6 upon confluency. ECs were cultured and maintained in EBM-2 Basal Medium (cat # CC-3156, Lonza, Basel, Switzerland) supplemented with EGM-2 MV SingleQuots™ Kit—growth factors, cytokines, and antibiotics (cat # CC-4147, Lonza, Basel, Switzerland).
Senescence-associated β-galactosidase (SA-β-gal) staining. Senescence of ECs was measured using the Cellular Senescence Assay kit from Cell Biolabs, Inc. (Cat: CBA-230, San Diego, Calif.). The protocol was performed according to the manufacturer's guide. Briefly, Ecs treated continuously for 3 passages with esomeprazole or vehicle were plated in a 6 well plate. Upon confluency, cells were initially fixed and later incubated with SA-β-gal working solution for 16 hours in a non-humidified CO2 free incubator at 37° C. After incubation the cells were counter stained with SYTO® GREEN fluorescent nucleic acid stain (Life Technologies). Several random images per well were taken using light and fluorescent microscope. The SA-β-gal positive cells were counted manually and total cell number per field was quantified using NIH ImageJ software.

[1] = chronic treatment, at P6, vs vehicle

## Cc1nc2c(OCc3ccccc3)cccn2c1CC#N [SCH-28080]
Chronic exposure of human ECs
  endothelial senescence / aging (overall finding): accelerated
[1]
  SA-β-gal-positive cells: increased
  total cell count per microscopic field (SYTO-green staining): decrease
